Experimental data published in PubChem BioAssay AID1919008 (Molecular Pharmacology Branch, DTP, NCI, 2023).

Tested on: DMS-114 complex spheroids with HUVEC/MSC, growth % test/control
Test: Anticancer human tumor DMS-114 cell line growth inhibition [AhR];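 also: spheroids exposed to agents for 7 days before readout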;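 as to viability, T/C: 100% = DMSO vehicle control wells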
Conditions: for IC50: curve of first compound; for viability, T/C: stronger effect = lower value
Description: Multicellular complex tumor spheroid response to aryl hydrocarbon receptor antagonists in combination with a variety of drugs and investigational agents in selected tumor cell lines
The current study was undertaken to assess response to aryl hydrocarbon receptor antagonists in combination with standard-of-care drugs and investigational agents in solid tumor complex spheroid models. Complex spheroids include a stromal component modeled by human endothelial cells (HUVEC) and fibroblasts modeled by human mesenchymal stem cells (MSCs). The concentration ranges selected for each drug and investigational agent were based upon clinically achievable concentrations if the clinical Cmax of the agent was known.
Compounds. The drugs and investigational agents: BAY 2416964 (NSC825713), GNF351 (NSC835774), CH-223191 (NSC835775), CPI-455 (NSC825282), aza-TdCyd (NSC777586), decitabine (NSC127716), belinostat (NSC758774), entinostat (NSC756642), pevonedistat (NSC761192), tazemetostat (NSC777109), talazoparib (NSC765396), olaparib (NSC753686), selinexor (NSC780203), nedisertib (M3814, NSC802822), bortezomib (NSC756655), venetoclax (NSC766270), doxorubicin (NSC123127), elimusertib (BAY189344, NSC800525), ceralasertib (AZD6738, NSC777638), TAK-243 (NSC785004), alisertib (NSC759677), etoposide (NSC141540), topotecan (NSC609699), eribulin (NSC707389), gemcitabine (NSC613327), carboplatin (NSC241240), cisplatin (NSC119875), and SN-38 (NSC673596) were obtained from the National Cancer Institute (NCI) Developmental Therapeutics Program Chemical Repository (32). The FDA-approved anticancer drug set is available from the Developmental Therapeutics Program at https://dtp.cancer.gov/organization/dscb/obtaining/available plates.htm. […] The stock solutions were prepared in dimethyl sulfoxide (DMSO, Sigma-Aldrich, St. Louis, MO, cat. D2650), except for the platinum compounds which were prepared in saline (Quality Biological, Gaithersburg, MD, cat. 114-055-101), at 800-fold the tested concentration and stored at -70 degrees C prior to their use. All drugs and investigational agents were tested over a range starting from a high concentration at or near the clinical Cmax and decreasing in half-log increments. If the clinical Cmax for an agent had not been determined, the highest concentration tested was 10 microM (Table 1).
Cell Culture. All cells were maintained in an incubator at 37 degrees C and 5% CO2 with 95% humidity. The PDC lines were cultured according to standard operating procedures established by the NCI PDMR (https://pdmr.cancer.gov). Briefly, all PDCs were thawed and cultured in Matrigel-coated flasks prepared with a working solution of 1X Ham's F-12 nutrient mix, without supplementation (Invitrogen, Waltham, MA, cat. 11765054), 100 U/mL penicillin-streptomycin (Invitrogen, cat. 15140122), and 2.5% Matrigel (Corning Inc., Corning, NY, cat. 354248) for the first three passages. All PDCs were cultured in complete DMEM/F-12 media containing advanced DMEM/F-12 (Invitrogen, cat. 12634028), 4.9% defined fetal bovine serum, heat inactivated (HyClone Laboratories Inc., Logan, UT, cat. SH30070.03HI), 389 ng/mL hydrocortisone (Sigma-Aldrich, cat. H4001), 9.7 ng/mL human EGF recombinant protein (Invitrogen, cat. PHG0313), 23.4 microg/mL adenine (Sigma-Aldrich, cat. A2786), 97.3 U/mL penicillin-streptomycin (Invitrogen, cat. 15140122), 1.9 mM L-glutamine (Invitrogen, cat. 25030081), and 9.7 microM Y-27632 dihydrochloride (Tocris Bioscience, Bristol, United Kingdom, cat. 1254). The PDCs were cultured in complete DMEM/F12 media without 10 microM Y-27632 dihydrochloride for at least two passages prior to the screen. The established cell lines NCI-H1341 and […] were cultured in DMEM/F-12, HEPES (Invitrogen, cat. 11330032), 5% defined fetal bovine serum (HyClone Laboratories Inc., cat. SH30070.03), ITS premix universal culture supplement [insulin (5 microg/mL), transferrin (5 microg/mL), and selenious acid (5 ng/mL)] […]

[1] = second compound 0.1 µM, first compound 0.000949 µM
[2] = second compound 0.1 µM, first compound 0.003 µM
[3] = second compound 0.1 µM, first compound 0.00949 µM
[4] = second compound 0.1 µM, first compound 0.03 µM
[5] = second compound 0.1 µM, first compound 0.0949 µM
[6] = second compound 0.1 µM, first compound 0.3 µM
[7] = second compound 0.316 µM, first compound 0.000949 µM
[8] = second compound 0.316 µM, first compound 0.003 µM
[9] = second compound 0.316 µM, first compound 0.00949 µM
[10] = second compound 0.316 µM, first compound 0.03 µM
[11] = second compound 0.316 µM, first compound 0.0949 µM
[12] = second compound 0.316 µM, first compound 0.3 µM
[13] = second compound 1 µM, first compound 0.000949 µM
[14] = second compound 1 µM, first compound 0.003 µM
[15] = second compound 1 µM, first compound 0.00949 µM
[16] = second compound 1 µM, first compound 0.03 µM
[17] = second compound 1 µM, first compound 0.0949 µM
[18] = second compound 1 µM, first compound 0.3 µM
[19] = second compound 3.16 µM, first compound 0.000949 µM
[20] = second compound 3.16 µM, first compound 0.003 µM
[21] = second compound 3.16 µM, first compound 0.00949 µM
[22] = second compound 3.16 µM, first compound 0.03 µM
[23] = second compound 3.16 µM, first compound 0.0949 µM
[24] = second compound 3.16 µM, first compound 0.3 µM
[25] = second compound 10 µM, first compound 0.000949 µM
[26] = second compound 10 µM, first compound 0.003 µM
[27] = second compound 10 µM, first compound 0.00949 µM
[28] = second compound 10 µM, first compound 0.03 µM
[29] = second compound 10 µM, first compound 0.0949 µM
[30] = second compound 10 µM, first compound 0.3 µM

Compound: CC(C)CC(NC(=O)C(Cc1ccccc1)NC(=O)c1cnccn1)B(O)O (stereo not given) + CC(CO)NC(=O)c1cc(-c2ccc(Cl)cc2)nn(-c2cnn(C)c2)c1=O
- IC50 (second compound 0.1 µM): 3.61 nM
- IC50 (second compound 0.316 µM): 4.04 nM
- IC50 (second compound 1 µM): 3.33 nM
- IC50 (second compound 3.16 µM): 3.29 nM
- IC50 (second compound 10 µM): 4.34 nM
- viability, T/C [1]: 100%
- viability, T/C [2]: 59.4%
- viability, T/C [3]: 0.72%
- viability, T/C [4]: 0.35%
- viability, T/C [5]: 0.11%
- viability, T/C [6]: 0.29%
- viability, T/C [7]: 95.5%
- viability, T/C [8]: 66.8%
- viability, T/C [9]: 1.94%
- viability, T/C [10]: 0.05%
- viability, T/C [11]: 0.3%
- viability, T/C [12]: 0.42%
- viability, T/C [13]: 113%
- viability, T/C [14]: 54.8%
- viability, T/C [15]: 1.26%
- viability, T/C [16]: 0.32%
- viability, T/C [17]: 0.11%
- viability, T/C [18]: 0.25%
- viability, T/C [19]: 85.7%
- viability, T/C [20]: 54.4%
- viability, T/C [21]: 0.8%
- viability, T/C [22]: 0.07%
- viability, T/C [23]: 0.76%
- viability, T/C [24]: 0.17%
- viability, T/C [25]: 99%
- viability, T/C [26]: 72.8%
- viability, T/C [27]: 1.52%
- viability, T/C [28]: 0.2%
- viability, T/C [29]: 0.15%
- viability, T/C [30]: 0.26%

Compound: Cn1ncnc1C1c2n[nH]c(=O)c3cc(F)cc(c23)NC1c1ccc(F)cc1 (stereo not given) + Cc1ccccc1N=Nc1ccc(NC(=O)c2ccnn2C)c(C)c1
- IC50 (second compound 0.1 µM): > 100 nM
- IC50 (second compound 0.316 µM): > 100 nM
- IC50 (second compound 1 µM): > 100 nM
- IC50 (second compound 3.16 µM): > 100 nM
- IC50 (second compound 10 µM): > 100 nM
- viability, T/C (second compound 0.1 µM, first compound 0.000316 µM): 118%
- viability, T/C (second compound 0.1 µM, first compound 0.001 µM): 101%
- viability, T/C (second compound 0.1 µM, first compound 0.00316 µM): 111%
- viability, T/C (second compound 0.1 µM, first compound 0.01 µM): 110%
- viability, T/C (second compound 0.1 µM, first compound 0.0316 µM): 120%
- viability, T/C (second compound 0.1 µM, first compound 0.1 µM): 107%
- viability, T/C (second compound 0.316 µM, first compound 0.000316 µM): 104%
- viability, T/C (second compound 0.316 µM, first compound 0.001 µM): 105%
- viability, T/C (second compound 0.316 µM, first compound 0.00316 µM): 104%
- viability, T/C (second compound 0.316 µM, first compound 0.01 µM): 113%
- viability, T/C (second compound 0.316 µM, first compound 0.0316 µM): 104%
- viability, T/C (second compound 0.316 µM, first compound 0.1 µM): 112%
- viability, T/C (second compound 1 µM, first compound 0.000316 µM): 103%
- viability, T/C (second compound 1 µM, first compound 0.001 µM): 112%
- viability, T/C (second compound 1 µM, first compound 0.00316 µM): 108%
- viability, T/C (second compound 1 µM, first compound 0.01 µM): 101%
- viability, T/C (second compound 1 µM, first compound 0.0316 µM): 111%
- viability, T/C (second compound 1 µM, first compound 0.1 µM): 113%
- viability, T/C (second compound 3.16 µM, first compound 0.000316 µM): 96%
- viability, T/C (second compound 3.16 µM, first compound 0.001 µM): 104%
- viability, T/C (second compound 3.16 µM, first compound 0.00316 µM): 102%
- viability, T/C (second compound 3.16 µM, first compound 0.01 µM): 111%
- viability, T/C (second compound 3.16 µM, first compound 0.0316 µM): 98.3%
- viability, T/C (second compound 3.16 µM, first compound 0.1 µM): 104%
- viability, T/C (second compound 10 µM, first compound 0.000316 µM): 93.5%
- viability, T/C (second compound 10 µM, first compound 0.001 µM): 93.3%
- viability, T/C (second compound 10 µM, first compound 0.00316 µM): 90%
- viability, T/C (second compound 10 µM, first compound 0.01 µM): 96.2%
- viability, T/C (second compound 10 µM, first compound 0.0316 µM): 95.1%
- viability, T/C (second compound 10 µM, first compound 0.1 µM): 95%

Compound: CCc1c2c(nc3ccc(O)cc13)-c1cc3c(c(=O)n1C2)COC(=O)[C@]3(O)CC + Cc1cncc(-c2nc(NCCc3c[nH]c4ccccc34)c3ncn(C(C)C)c3n2)c1
- IC50 (second compound 0.1 µM): 2.07 nM
- IC50 (second compound 0.316 µM): 2.21 nM
- IC50 (second compound 1 µM): 2.02 nM
- IC50 (second compound 3.16 µM): 1.58 nM
- IC50 (second compound 10 µM): < 0.949 nM
- viability, T/C [1]: 67.4%
- viability, T/C [2]: 41.6%
- viability, T/C [3]: 21.9%
- viability, T/C [4]: 13.8%
- viability, T/C [5]: 12.6%
- viability, T/C [6]: 12.5%
- viability, T/C [7]: 69%
- viability, T/C [8]: 43.1%
- viability, T/C [9]: 19.9%
- viability, T/C [10]: 14.5%
- viability, T/C [11]: 15.2%
- viability, T/C [12]: 12.2%
- viability, T/C [13]: 62.5%
- viability, T/C [14]: 43.5%
- viability, T/C [15]: 20.7%
- viability, T/C [16]: 15.5%
- viability, T/C [17]: 9.97%
- viability, T/C [18]: 14.7%
- viability, T/C [19]: 62.9%
- viability, T/C [20]: 33.7%
- viability, T/C [21]: 15%
- viability, T/C [22]: 13.1%
- viability, T/C [23]: 13%
- viability, T/C [24]: 12.4%
- viability, T/C [25]: 22.1%
- viability, T/C [26]: 17.4%
- viability, T/C [27]: 9.92%
- viability, T/C [28]: 8.3%
- viability, T/C [29]: 9%
- viability, T/C [30]: 6.26%
